Source: patent US10538555B2, “Macrocyclic inhibitors of the PD-1/PD-L1 and CD80(B7-1)/PD-L1 protein/protein interactions” (BRISTOL-MYERS SQUIBB COMPANY, priority 2014, dated 2020)
*1 amine or outer side, *2 acyl side, *3 side chain or, on linkers, in order; H or OH if unused. Where a SMILES comes first, the peptide text is derived from it. Bridges are numbered along the chain shown (N, C = ends). [ ]: non-standard residue; d: D form. Trp(1-CH2COOH) = N[C@@H](Cc1cn(CC(=O)O)c2ccccc12)C(=O)O; NMeW = CN[C@@H](Cc1c[nH]c2ccccc12)C(=O)O; Phe(4-F) = N[C@@H](Cc1ccc(F)cc1)C(=O)O; d(cisHyp) = O=C(O)[C@H]1C[C@@H](O)CN1; Bta = N[C@@H](Cc1csc2ccccc12)C(=O)O; Hyp = O=C(O)[C@@H]1C[C@@H](O)CN1; NMeF = CN[C@@H](Cc1ccccc1)C(=O)O; dPip(4-aza) = O=C(O)[C@H]1CNCCN1; NMeE = CN[C@@H](CCC(=O)O)C(=O)O; NMeNle = CCCC[C@H](NC)C(=O)O; NMeA = CN[C@@H](C)C(=O)O; Orn = NCCC[C@H](N)C(=O)O; Dab = NCC[C@H](N)C(=O)O; Dap = NC[C@H](N)C(=O)O; CO = O=C([*:1])[*:2]

target: T1, Human PD-L1/PD-1 (Homo sapiens, UniProt Q9NZQ7); experiment: HTRF Human PD-L1/PD-1 binding assay (PD-1-Ig/PD-L1-His); details: PD-L1-His 10 nM, PD-1-Ig 20 nM; class symbol; read-out: HTRF Human PD-L1/PD-1 Binding Assay IC50 Range
T1 construct: TVMV protease cleavage site (C); made in house; host or cells: HEK293T cells
T1 sequence (Q9NZQ7 with tags, fused parts or gaps): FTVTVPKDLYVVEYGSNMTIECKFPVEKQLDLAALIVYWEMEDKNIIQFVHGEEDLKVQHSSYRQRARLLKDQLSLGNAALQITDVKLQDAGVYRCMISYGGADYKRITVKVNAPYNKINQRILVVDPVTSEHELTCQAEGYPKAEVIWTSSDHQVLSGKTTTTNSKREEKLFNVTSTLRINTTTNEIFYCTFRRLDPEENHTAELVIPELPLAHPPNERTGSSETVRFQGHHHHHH
Procedure, shortened: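 Soluble HEK293T-expressed proteins: hPD-L1-His 10 nM, hPD-1-Ig 20 nM final. Cpd + PD-L1 15 min, + PD-1 15 min, + Eu anti-Ig 1 nM/APC anti-His 20 nM 30 min. Buffer dPBS, 0.1% BSA, 0.05% Tween-20. TR-FRET 665/620.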

| SMILES | IC50 [nM] |
| --- | --- |
| CCCC[C@H]1C(=O)N2C[C@H](O)C[C@@H]2C(=O)N[C@@H](CC(=O)O)C(=O)N[C@@H](C(C)C)C(=O)N(C)[C@@H](Cc2ccccc2)C(=O)N[C@@H](CCC(=O)O)C(=O)N2CCNC[C@@H]2C(=O)N[C@@H](Cc2c[nH]c3ccccc23)C(=O)N[C@@H](Cc2ccc(O)cc2)C(=O)N[C@@H](CCCN)C(=O)N[C@H](C(=O)NCC(N)=O)CSCC(=O)N[C@@H](Cc2ccc(F)cc2)C(=O)N(C)[C@@H](Cc2ccccc2)C(=O)N1C [Example 3648] ({CH2CO}-[Phe(4-F)][NMeF][NMeNle][d(cisHyp)]DV[NMeF]E[dPip(4-aza)]WY[Orn]CG-NH2; thioether N-13) | 10 to 99.9 |
| CCCC[C@H]1C(=O)N(C)[C@@H](CCCC)C(=O)N[C@@H](CCC(=O)O)C(=O)N[C@H](C(=O)NCC(N)=O)CSCC(=O)N[C@@H](Cc2ccc(O)cc2)C(=O)N(C)[C@@H](C)C(=O)N[C@@H](CC(N)=O)C(=O)N2CCC[C@H]2C(=O)N[C@@H](Cc2c[nH]cn2)C(=O)N[C@@H](CCC(=O)O)C(=O)N2C[C@H](O)C[C@H]2C(=O)N[C@@H](Cc2c[nH]c3ccccc23)C(=O)N[C@@H](CO)C(=O)N[C@@H](Cc2c[nH]c3ccccc23)C(=O)N1C [Example 5150] ({CH2CO}-Y[NMeA]NPHE[Hyp]WSW[NMeNle][NMeNle]ECG-NH2; thioether N-14) | 1 to 9.9 |
| CCCC[C@H]1C(=O)N[C@@H](CN)C(=O)N[C@H](C(=O)NCC(N)=O)CSCC(=O)N[C@@H](Cc2ccc(O)cc2)C(=O)N(C)[C@@H](C)C(=O)N[C@@H](CC(N)=O)C(=O)N2CCC[C@H]2C(=O)N[C@@H](Cc2c[nH]cn2)C(=O)N[C@@H](CCC(=O)O)C(=O)N2C[C@H](O)C[C@H]2C(=O)N[C@@H](Cc2c[nH]c3ccccc23)C(=O)N[C@@H](CCN)C(=O)N[C@@H](Cc2c[nH]c3ccccc23)C(=O)N(C)[C@@H](CCC(=O)O)C(=O)N1C [Example 5152] ({CH2CO}-Y[NMeA]NPHE[Hyp]W[Dab]W[NMeE][NMeNle][Dap]CG-NH2; thioether N-14) | 10 to 99.9 |
| CCCC[C@H]1C(=O)N(C)[C@@H](CCCC)C(=O)N[C@@H](CC(C)C)C(=O)N[C@H](C(=O)NCC(N)=O)CSCC(=O)N[C@@H](Cc2ccc(O)cc2)C(=O)N(C)[C@@H](C)C(=O)N[C@@H](CC(=O)O)C(=O)N2CCC[C@H]2C(=O)N[C@@H](CN)C(=O)N[C@@H](CCC(N)=O)C(=O)N2C[C@H](O)C[C@H]2C(=O)N[C@@H](Cc2c[nH]c3ccccc23)C(=O)N[C@@H](CCN)C(=O)N[C@@H](Cc2cn(CC(=O)O)c3ccccc23)C(=O)N1C [Example 5153] ({CH2CO}-Y[NMeA]DP[Dap]Q[Hyp]W[Dab][Trp(1-CH2COOH)][NMeNle][NMeNle]LCG-NH2; thioether N-14) | 1 to 9.9 |
| CCCC[C@H]1C(=O)N(C)[C@@H](CCCC)C(=O)N[C@@H](CNC(=O)O)C(=O)N[C@H](C(=O)NCC(N)=O)CSCC(=O)N[C@@H](Cc2ccc(O)cc2)C(=O)N(C)[C@@H](C)C(=O)N[C@@H](CC(=O)O)C(=O)N2CCC[C@H]2C(=O)N[C@@H](CN)C(=O)N[C@@H](CCC(=O)O)C(=O)N2C[C@H](O)C[C@H]2C(=O)N[C@@H](Cc2c[nH]c3ccccc23)C(=O)N[C@@H](CCC(=O)O)C(=O)N[C@@H](Cc2c[nH]c3ccccc23)C(=O)N1C [Example 5154] ({CH2CO}-Y[NMeA]DP[Dap]E[Hyp]WEW[NMeNle][NMeNle][Dap](CO)CG-NH2; thioether N-14) | 10 to 99.9 |
| CCCC[C@H]1C(=O)N(C)[C@@H](CCCC)C(=O)N[C@@H](CCC(=O)O)C(=O)N[C@H](C(=O)NCC(N)=O)CSCC(=O)N[C@@H](Cc2ccc(O)cc2)C(=O)N(C)[C@@H](C)C(=O)N[C@@H](CC(=O)O)C(=O)N2CCC[C@H]2C(=O)N[C@@H](Cc2c[nH]cn2)C(=O)N[C@@H](CCC(N)=O)C(=O)N2C[C@H](O)C[C@H]2C(=O)N[C@@H](Cc2c[nH]c3ccccc23)C(=O)N[C@@H](CCC(=O)O)C(=O)N[C@@H](Cc2c[nH]c3ccccc23)C(=O)N1C [Example 5158] ({CH2CO}-Y[NMeA]DPHQ[Hyp]WEW[NMeNle][NMeNle]ECG-NH2; thioether N-14) | 10 to 99.9 |
| CCCC[C@H]1C(=O)N(C)[C@@H](CCCC)C(=O)N[C@H](C)C(=O)N[C@H](C(=O)NCC(N)=O)CSCC(=O)N[C@@H](Cc2ccc(O)cc2)C(=O)N(C)[C@@H](C)C(=O)N[C@@H](CC(N)=O)C(=O)N2CCC[C@H]2C(=O)N[C@@H](Cc2c[nH]cn2)C(=O)N[C@@H](CCC(=O)O)C(=O)N2C[C@H](O)C[C@H]2C(=O)N[C@@H](Cc2c[nH]c3ccccc23)C(=O)N[C@@H](CCN)C(=O)N[C@@H](Cc2csc3ccccc23)C(=O)N1C [Example 5159] ({CH2CO}-Y[NMeA]NPHE[Hyp]W[Dab][Bta][NMeNle][NMeNle][dA]CG-NH2; thioether N-14) | 1 to 9.9 |
| CCCC[C@H]1C(=O)N[C@@H](CN)C(=O)N[C@H](C(=O)NCC(N)=O)CSCC(=O)N[C@@H](Cc2ccc(O)cc2)C(=O)N(C)[C@@H](C)C(=O)N[C@@H](CC(N)=O)C(=O)N2CCC[C@H]2C(=O)N[C@@H](Cc2c[nH]cn2)C(=O)N[C@@H](CCC(=O)O)C(=O)N2C[C@H](O)C[C@H]2C(=O)N[C@@H](Cc2c[nH]c3ccccc23)C(=O)N[C@@H](CCN)C(=O)N[C@@H](Cc2c[nH]c3ccccc23)C(=O)N(C)[C@@H](Cc2c[nH]c3ccccc23)C(=O)N1C [Example 5160] ({CH2CO}-Y[NMeA]NPHE[Hyp]W[Dab]W[NMeW][NMeNle][Dap]CG-NH2; thioether N-14) | 10 to 99.9 |
| CCCC[C@H]1C(=O)N(C)[C@@H](CCCC)C(=O)N[C@@H](CCC(=O)O)C(=O)N[C@H](C(=O)NCC(N)=O)CSCC(=O)N[C@@H](Cc2ccc(O)cc2)C(=O)N(C)[C@@H](C)C(=O)N[C@@H](CC(N)=O)C(=O)N2CCC[C@H]2C(=O)N[C@@H](CN)C(=O)N[C@@H](CC(C)C)C(=O)N2C[C@H](O)C[C@H]2C(=O)N[C@@H](Cc2c[nH]c3ccccc23)C(=O)N[C@@H](CCN)C(=O)N[C@@H](Cc2c[nH]c3ccccc23)C(=O)N1C [Example 5161] ({CH2CO}-Y[NMeA]NP[Dap]L[Hyp]W[Dab]W[NMeNle][NMeNle]ECG-NH2; thioether N-14) | 1 to 9.9 |
| CCCC[C@H]1C(=O)N(C)[C@@H](CCCC)C(=O)N[C@@H](CCC(=O)O)C(=O)N[C@H](C(=O)NCC(N)=O)CSCC(=O)N[C@@H](Cc2ccc(O)cc2)C(=O)N(C)[C@@H](C)C(=O)N[C@@H](CC(=O)O)C(=O)N2CCC[C@H]2C(=O)N[C@@H](CN)C(=O)N[C@@H](CC(C)C)C(=O)N2C[C@H](O)C[C@H]2C(=O)N[C@@H](Cc2c[nH]c3ccccc23)C(=O)N[C@@H](CCN)C(=O)N[C@@H](Cc2c[nH]c3ccccc23)C(=O)N1C [Example 5162] ({CH2CO}-Y[NMeA]DP[Dap]L[Hyp]W[Dab]W[NMeNle][NMeNle]ECG-NH2; thioether N-14) | 1 to 9.9 |

Now from value to compound:

| IC50 [nM] | SMILES |
| --- | --- |
| 1 to 9.9 | CCCC[C@H]1C(=O)N(C)[C@@H](CCCC)C(=O)N[C@@H](CN)C(=O)N[C@H](C(=O)NCC(N)=O)CSCC(=O)N[C@@H](Cc2ccc(O)cc2)C(=O)N(C)[C@@H](C)C(=O)N[C@@H](CC(=O)O)C(=O)N2CCC[C@H]2C(=O)N[C@@H](Cc2c[nH]cn2)C(=O)N[C@@H](CCC(N)=O)C(=O)N2C[C@H](O)C[C@H]2C(=O)N[C@@H](Cc2c[nH]c3ccccc23)C(=O)N[C@@H](CO)C(=O)N[C@@H](Cc2cn(CC(=O)O)c3ccccc23)C(=O)N1C [Example 5163] ({CH2CO}-Y[NMeA]DPHQ[Hyp]WS[Trp(1-CH2COOH)][NMeNle][NMeNle][Dap]CG-NH2; thioether N-14) |
| 1 to 9.9 | CCCC[C@H]1C(=O)N(C)[C@@H](CCCC)C(=O)N[C@@H](CCC(=O)O)C(=O)N[C@H](C(=O)NCC(N)=O)CSCC(=O)N[C@@H](Cc2ccc(O)cc2)C(=O)N(C)[C@@H](C)C(=O)N[C@@H](CC(=O)O)C(=O)N2CCC[C@H]2C(=O)N[C@@H](CN)C(=O)N[C@@H](CC(C)C)C(=O)N2C[C@H](O)C[C@H]2C(=O)N[C@@H](Cc2c[nH]c3ccccc23)C(=O)N[C@@H](CO)C(=O)N[C@@H](Cc2c[nH]c3ccccc23)C(=O)N1C [Example 5164] ({CH2CO}-Y[NMeA]DP[Dap]L[Hyp]WSW[NMeNle][NMeNle]ECG-NH2; thioether N-14) |
| 1 to 9.9 | CCCC[C@H]1C(=O)N(C)[C@@H](CCCC)C(=O)N[C@@H](CCC(=O)O)C(=O)N[C@H](C(=O)NCC(N)=O)CSCC(=O)N[C@@H](Cc2ccc(O)cc2)C(=O)N(C)[C@@H](C)C(=O)N[C@@H](CC(N)=O)C(=O)N2CCC[C@H]2C(=O)N[C@@H](CN)C(=O)N[C@@H](CC(C)C)C(=O)N2C[C@H](O)C[C@H]2C(=O)N[C@@H](Cc2c[nH]c3ccccc23)C(=O)N[C@@H](CO)C(=O)N[C@@H](Cc2c[nH]c3ccccc23)C(=O)N1C [Example 5165] ({CH2CO}-Y[NMeA]NP[Dap]L[Hyp]WSW[NMeNle][NMeNle]ECG-NH2; thioether N-14) |
| 10 to 99.9 | CCCC[C@H]1C(=O)N(C)[C@@H](CCCC)C(=O)N[C@@H](C)C(=O)N[C@H](C(=O)NCC(N)=O)CSCC(=O)N[C@@H](Cc2ccc(O)cc2)C(=O)N(C)[C@@H](C)C(=O)N[C@@H](CC(N)=O)C(=O)N2CCC[C@H]2C(=O)N[C@@H](CN)C(=O)N[C@@H](CC(C)C)C(=O)N2C[C@H](O)C[C@H]2C(=O)N[C@@H](Cc2c[nH]c3ccccc23)C(=O)N[C@@H](CCN)C(=O)N[C@@H](Cc2cn(CC(=O)O)c3ccccc23)C(=O)N1C [Example 5166] ({CH2CO}-Y[NMeA]NP[Dap]L[Hyp]W[Dab][Trp(1-CH2COOH)][NMeNle][NMeNle]ACG-NH2; thioether N-14) |
| 1 to 9.9 | CCCC[C@H]1C(=O)N(C)[C@@H](CCCC)C(=O)N[C@@H](CCC(=O)O)C(=O)N[C@H](C(=O)NCC(N)=O)CSCC(=O)N[C@@H](Cc2ccc(O)cc2)C(=O)N(C)[C@@H](C)C(=O)N[C@@H](CC(N)=O)C(=O)N2CCC[C@H]2C(=O)N[C@@H](CO)C(=O)N[C@@H](CCC(=O)O)C(=O)N2C[C@H](O)C[C@H]2C(=O)N[C@@H](Cc2c[nH]c3ccccc23)C(=O)N[C@@H](CCN)C(=O)N[C@@H](Cc2c[nH]c3ccccc23)C(=O)N1C [Example 5167] ({CH2CO}-Y[NMeA]NPSE[Hyp]W[Dab]W[NMeNle][NMeNle]ECG-NH2; thioether N-14) |
